Laboratory results published in US20190252042A1, “INDENTIFICATION AND ANTIBIOTIC CHARACTERIZATION OF PATHOGENS IN METAGENOMIC SAMPLE” (BIOMÉRIEUX, priority 2016, published 2019).

How the values were obtained:
E aerogenes = experiment: Antibiotic Susceptibility Testing (AST) profile by classical microbiology, BAL sample 1; format: cell-based; settings: positive BAL metagenomic sample 1, pathogen E aerogenes
Excerpt: Three validation studies of the metagenomic analysis according to the invention have been done. The first validation study relies on in silico simulated metagenomes (validation study 1), the second validation study is a set of 3 positive miniBAL metagenomic samples for which only the culture identification is available (validation study 2), and the third validation study is a set 2 positive BAL metagenomic samples with identification and AST profiles available (validation study 3). For all the evaluation, Kraken is used for taxonomic binning and ARD binning (steps 22, 24) and IDBA-UD is used for assembly (step 28).
In Table 3, one notes that both pipelines give very similar results and results coherent with classical microbiology, at least for identification results. Both pipelines give similar results, probably because the ARD retrieved are present in the reference sequences of the 2 pathogens, ie. AmpC must be present in the reference sequences of E. aerogenes, and ANT(9)-1A in the reference sequences of S aureus.

S aureus = experiment: Antibiotic Susceptibility Testing (AST) profile by classical microbiology, BAL sample 2; format: cell-based; settings: positive BAL metagenomic sample 2, pathogen S aureus

Row | Compound | AST profile (E aerogenes) | AST profile (S aureus)
1 | CC1(C)S[C@@H]2[C@H](NC(=O)[C@H](N)c3ccc(O)cc3)C(=O)N2[C@H]1C(=O)O [amoxiciline] | resistance: amoxiciline, clavunalate | –
2 | CO/N=C(\C(=O)N[C@@H]1C(=O)N2C(C(=O)O)=C(COC(N)=O)CS[C@H]12)c1ccco1 [cefuroxime] | intermediate resistance: cefuroxime | –
3 | O=C(O)[C@H]1/C(=C/CO)O[C@@H]2CC(=O)N21 [clavunalate] | resistance: amoxiciline, clavunalate | –
4 | peniciline | – | resistance: peniciline, clindamycine
